Data from patent US20190022110A1, “AQUEOUS BASED CAPSAICINOID FORMULATIONS AND METHODS OF MANUFACTURE AND USE” (VIZURI HEALTH SCIENCES LLC, priority 2012, published 2019).
Converted amounts (≈) assume the structure as drawn.

What was measured:
[1] = cited from earlier work
arthritic knee joints = assay: Clinical study: corticosteroid pretreatment and pain due to intra-articular capsaicin injection; assay type: in vivo, human
Protocol: This study examined the administration of a corticosteroid as an adjunctive agent prior to the administration of capsaicin to attenuate the burning and stinging effect resulting for the intra-articular injection of capsaicin into the knee joint.
Tests were conducted to evaluate the effectiveness of a corticosteroid injection into a site prior to injection of a capsaicin formulation. Subjects with arthritic knee joints were selected and treated as follows: • The knee joint to be treated was cleaned with Betadine or other suitable antiseptic agent. • A […].
Procedures and resulting pain level experienced by the injection of subjects injected with a 0.2 mg dose level of the capsaicin formulation as a function of elapsed time are summarized in Tables IX to XV. […] A description of the 6 knees treated with the capsaicin injections follows.

physchem = settings: for solubility: aqueous with cosolvent or surfactant or cyclodextrin
Protocol: The teachings of this application were utilized in solubilizing capsaicin in a high purity PS 80 obtained from Croda Inc.
• 1. 10 grams of PS 80 are added to a 50 ml “Pyrex” glass vial. • 2. 2 grams of Trans-Capsaicin are added to the PS 80 in Step 1. • 3. The mixture from Step 2 is heated to ˜55° C. to dissolve the Trans-Capsaicin and form the Trans-Capsaicin/PS80 concentrate.

peripheral nociceptors = settings: cited from earlier work
[2] = in vivo; cited from earlier work
[3] = knee #1, patient #1, Depo-Medrol, no Lidocaine, 0.2 mg capsaicin
[4] = knee #2, patient #2, Depo-Medrol, Lidocaine, 0.2 mg capsaicin
[5] = knee #3, patient #3, Depo-Medrol, Lidocaine, 0.2 mg capsaicin
[6] = knee #4, patient #4 left, Depo-Medrol, gel pack, Lidocaine, 0.2 mg capsaicin
[7] = knee #5, patient #4 right, no corticosteroid, Lidocaine, 0.2 mg capsaicin
[8] = knee #6, patient #1 right, Depo-Medrol, cold pack, Lidocaine, 0.2 mg capsaicin

CC1CCC(C(C)C)C(O)C1 (stereo not drawn) [Menthol]
Aqueous Soluble [1]: slightly
Oil Soluble [1]: soluble

COc1cc(CNC(=O)CCCC/C=C/C(C)C)ccc1O [Capsaicin]
Aqueous Soluble [1]: insoluble
Oil Soluble [1]: soluble
pain status of treated knees as of the date of filing (arthritic knee joints; all patients, 0.2 mg capsaicin intra-articular): remain pain free
duration pain free (arthritic knee joints; in one case): over 3 weeks
duration of extreme pain following capsaicin injection (arthritic knee joints; [3]): about 1 hour
relief of arthritic pain symptoms (arthritic knee joints; [3]): significant relief of their arthritic pain symptoms
time of procedure until relief of arthritic pain symptoms (arthritic knee joints; [3]): ~80 min
relief of arthritic pain symptoms (arthritic knee joints; [4]): complete relief of their osteoarthritic pain symptoms
time until procedure completed and pain relief (arthritic knee joints; [4]): about 30 minutes
relief of arthritic pain symptoms (arthritic knee joints; [5]): complete relief for their painful arthritic symptoms
time until procedure concluded and pain relief (arthritic knee joints; [5]): about 23 minutes
relief of arthritic pain symptoms (arthritic knee joints; [6]): complete relief of their painful severe osteoarthritis pain
time pain level remained at a mild level before complete relief (arthritic knee joints; [6]): about 13 minutes
relief of arthritic pain symptoms (arthritic knee joints; [7]): alleviated their painful arthritic symptoms
time until arthritic symptoms alleviated (arthritic knee joints; [7]): ~25 min
relief of arthritic pain symptoms (arthritic knee joints; [8]): complete relief of their painful arthritic symptoms
time until procedure concluded and pain relief (arthritic knee joints; [8]): about 17 minutes
capsaicin concentration achieved in PS 80 (physchem): 200 mg/mL
capsaicin solubility with PEG-400 compared to PS80 (physchem): did not achieve the capsaicin solubility levels
supersaturation of Capsaicin/PS 80 solution (physchem): not supersaturated
dissolution of capsaicin without pre-formed concentrate (physchem; PS 80 and capsaicin added to water, then heated to ~70° C.-90° C.): only a fraction of the capsaicin dissolving
solubility (physchem; aqueous capsaicin solubility level): 20000 µg/mL (≈ 65.5 mM)
solubility (physchem; aqueous capsaicin solubility level, 2 ml capsaicin/PS 80 concentrate added to 98 grams of ~70° C. water, cooled to room temperature): 4000 µg/mL (≈ 13.1 mM)
solubility (physchem; increase of aqueous solubility of capsaicin): ~1000 µg/mL (≈ 3.27 mM)
duration of subsequent mild pain (peripheral nociceptors; injectable capsaicin formulations, after the intense B&S pain): 1 to 2 h
duration of intense burning and stinging (B&S) pain (peripheral nociceptors; injectable capsaicin formulations): up to 1 hour
persistence of spontaneous burning pain and hyperalgesia (peripheral nociceptors; upon capsaicin injection in clinical trials): up to 60 minutes

CCCNC(C)C(=O)Nc1ccccc1C (stereo not drawn) [Prilocaine]
Aqueous Soluble [1]: sparingly
Oil Soluble [1]: soluble

CCOC(=O)c1ccc(N)cc1 [Benzocaine]
Aqueous Soluble [1]: sparingly
Oil Soluble [1]: soluble

Polyethylene glycol [PEG]
systemic absorption [2]: less than 0.5%

CCO [Ethyl Alcohol]
Aqueous Soluble [1]: miscible
Oil Soluble [1]: soluble
